In one assay the test system is C. albicans. Put plainly: standard in vitro fungal cell growth inhibition assay (broth dilution, M27-P), minimum fungicidal concentration. The class given is cell-based. To be noted: Candida albicans, A39 clinical isolate, RPMI media, inoculum 10^4 cells, less than 0.01% survival of original inoculum. As to the method:
(§1) Activity of the compounds were assessed using a standard in vitro fungal cell growth inhibition assay (the broth dilution antifungal susceptibility testing of yeast, proposed standard document M27-P, validated by the National Committee for Clinical Laboratory Standards, 1992). Briefly, this broth dilution procedure uses RPMI media, and an inoculum of 10^4 cells. Control tubes contained media alone. After the minimal inhibitor concentration was determined by the above procedure, tubes with no visible growth were subcultured to determine the minimum fungicidal concentration by using criteria of less than 0.01% survival of original inoculum. Two organisms were tested: (1) H99, a clinical isolate of C. neoformans which is fully susceptible to azoles and polyenes in vitro and in vivo; and (2) A39, a clinical isolate of C. albicans which is fully susceptible to azoles and polyenes.
(§2) The MFC's (minimum fungicidal concentration) against these two important AIDS-associated fungal infections are shown in Table 1. MFCs were determined following the method of McGinnis.
Background: Dilution methods test growth across graded concentrations, often in twofold steps.

The subject of the next assay is C. neoformans. The description is as above. To be noted: Cryptococcus neoformans, H99 clinical isolate, RPMI media, inoculum 10^4 cells, less than 0.01% survival of original inoculum. The class given is cell-based. On the procedure:
as §1, §2

The next assay concerns L1210 cells. Description: in vitro cytotoxicity, 3H-thymidine incorporation in L1210 cells. The class given is cell-based. To be noted: Mus musculus, 48 hours, 6 replicates. From the text: Source: L1210 cells were obtained from the American Type Culture Collection (ATCC#CCL219). This line is a mouse lymphocytic leukemia line first described by E. Law et al., J. Natl. Cancer Inst. 10, 179-192 (1949) as a tumor arising in a mouse following skin paintings with 0.2% methycholanthrene. The first report of suspension culture was reported by G. Moore et al. J. Natl. Cancer Inst. 36, 405-421 (1966). This line has been used extensively for routine screening programs of chemical agents and natural products for cytotoxic activity and is also utilized in preliminary testing for antitumor activity by the NCI in cancer chemotherapy screening studies.
The in vitro cytotoxicity studies were performed essentially as described by Denizot and Lang, "Rapid calorimetric assay for cell growth and survival: Modification of tetrazolium dye procedure giving improved sensitivity and reliability", J. Immunological Methods 89, 271 (1986), but with the following modifications. Since many of the drugs had color interference, the viability of the cells was determined with a ^3 H-thymidine incorporation method. L1210 cells in DMEM +10% fetal calf serum were plated at 2.0×10^4 cells/well. An equal volume of test compound was added to each well diluted to 2× the final concentration in the above medium. Final drug concentrations ranged from 0.05 to 50 μM. After 24 hours at 37° C., 2.5 μCi of ^3 H-Thymidine (5 Ci/mmol) was added to each well. At 48 hours, the cells were harvested onto glass filters and radioactivity was measured with a scintillation counter.
The IC50 value was determined as the concentration leading to a 50% reduction of ^3 H-thymidine incorporation relative to control wells. Each value shown in Table 1, above, resulted from 6 replicates for each compound.

For the next assay, the system named is S. cerevisiae. Description: S. cerevisiae IC50 (Table I). The class given is cell-based. The note with it: Saccharomyces cerevisiae.
The next assay concerns Calf thymus DNA. Description: DNA binding by change in melting of the DNA bound to the compounds (ΔTm). To be noted: 259 nm, 18° C./h heating; initial absorbance of 0.3A259. On the procedure:
DNA binding potency was determined for each of the compounds because previous work had determined that the binding of dicationic molecules to DNA is a prerequisite for their antimicrobial activity. See e.g., Tidwell, R. R., et al., Antimicrob. Agents Chemother. 37, 1713-1716 (1993); Bell, C. A., et al., Antimicrob. Agents Chemother. 35, 1099-1107 (1991). The DNA binding of the compounds was determined by the change in melting of the DNA bound to the compounds. The method is well documented and is a considered a standard method for determining DNA binding strength. See Cory, M. et al., J. Med. Chem. 25, 431-438 (1992). In brief, a UV-visible light spectrophotometer with a cuvette changer was interfaced to a microcomputer that recorded the cuvette temperature and DNA-absorbance data at 259 nm as the sample was heated at a rate of 18° C./h. Calf thymus DNA was used at an initial absorbance of 0.3A259. The midpoint of each denaturation curve was determined after graphic selection on the computer of the starting and ending absorbance temperature for each curve of each experiment. DNA or DNA bound to experimental compound was run in each experiment and the ΔTm s were determined from the polynucleotide TM for that experiment.

Consider 9 compounds from patent publication US6294565A, “Methods of combatting infectious diseases using dicationic bis-benzimidazoles” (University of North Carolina at Chapel Hill, priority 2000, dated 2001).

For orientation: MFC means the lowest tested concentration that kills the fungus rather than only halting it. A lower MFC goes with greater fungicidal potency. As usually defined, the IC50 is the concentration needed to halve the response being measured.

SMILES strings stand for the structures. Converted amounts (≈) assume the structure as drawn.

In the case of `N=C(N)c1ccc2nc(-c3ccc(-c4nc5ccc(C(=N)N)cc5[nH]4)[nH]3)[nH]c2c1` [Compound 1, 2,5-bis(5-amidino-2-benzimidazolyl)pyrrole], the MFC in the assay on C. albicans is 5.71 µM (≈ 2.19 µg/mL); against C. neoformans it was 2.85 µM (≈ 1.09 µg/mL). In addition, the IC50 in the assay with L1210 cells came to 0.21 µM; in the assay with S. cerevisiae it was 45 µM. In the assay on Calf thymus DNA, the ΔTm DNA binding amounted to 18.1 °C.
In the case of `c1cc2[nH]c(-c3ccc(-c4nc5cc(C6=NCCN6)ccc5[nH]4)[nH]3)nc2cc1C1=NCCN1` [Compound 2, 2,5-bis-[5-(2-imidazolinyl)-2-benzimidazolyl]pyrrole], the MFC against C. albicans turned out to be 26.8 µM (≈ 11.7 µg/mL); with C. neoformans, 107 µM (≈ 46.6 µg/mL). Also, the 50% inhibitory concentration (IC50) was 1.07 µM in the assay with L1210 cells and below 1 µM in the assay on S. cerevisiae.
For the compound `c1cc(-c2nc3cc(C4=NCCN4)ccc3[nH]2)nc(-c2nc3cc(C4=NCCN4)ccc3[nH]2)c1` [Compound 3, 2,6-bis[5-(2-imidazolinyl)-2-benzimidazolyl]pyridine], the results for the MFC against C. albicans and in the assay with C. neoformans were 2.6 µM (≈ 1.16 µg/mL) and 5.2 µM (≈ 2.33 µg/mL), respectively. Besides, the figures for the IC50 in the assay with L1210 cells and in the assay on S. cerevisiae were 1.26 µM and 10 µM, respectively.
As for `Cn1c(-c2nc3ccc(C(=N)N)cc3[nH]2)ccc1-c1nc2ccc(C(=N)N)cc2[nH]1` [Compound 4, 1-Methyl-2,5-bis(5-amidino-2-benzimidazolyl)pyrrole], the MFC in the assay with C. albicans turned out to be 2.84 µM (≈ 1.13 µg/mL); against C. neoformans it was 5.69 µM (≈ 2.26 µg/mL). Further, the IC50 in the assay with L1210 cells was found to be 0.81 µM; with S. cerevisiae, 90 µM. In addition, the ΔTm DNA binding in the assay with Calf thymus DNA came out at 20.3 °C.
In the case of `Cn1c(-c2nc3cc(C4=NCCN4)ccc3[nH]2)ccc1-c1nc2cc(C3=NCCN3)ccc2[nH]1` [Compound 5], the figures for the MFC against C. albicans and against C. neoformans were 5.09 µM (≈ 2.29 µg/mL) and 2.54 µM (≈ 1.14 µg/mL), respectively. Besides, the IC50 was 1.51 µM with L1210 cells and above 100 µM in the assay with S. cerevisiae. In addition, the ΔTm DNA binding with Calf thymus DNA is 22.5 °C.
The like results for `N=C(N)c1ccc2[nH]c(-c3cccc(-c4nc5cc(C(=N)N)ccc5[nH]4)n3)nc2c1` [Compound 7, 2,6-bis(5-amidino-2-benzimidazoyl)pyridine] were, in that order, above 179 µM, above 179 µM, 13.6 µM, 95 µM and 15.3 °C.
The like results for `c1cc(-c2nc3ccc(C4=NCCCN4)cc3[nH]2)nc(-c2nc3ccc(C4=NCCCN4)cc3[nH]2)c1` [Compound 8, 2,6-bis[5-(1,4,5,6-tetrahydro-2-pyrimidinyl)-2-benzimidazolyl]pyridine] were, in that order, above 52 µM, 19 µM (≈ 9.05 µg/mL), 3 µM, 304 µM and 14.8 °C.
As to `N=C(N)c1ccc2nc(-c3ccc(-c4nc5ccc(C(=N)N)cc5[nH]4)o3)[nH]c2c1` [Compound 9, 2,5-bis(5-amidino-2-benzimidazolyl)furan], the MFC with C. albicans stood at 6.44 µM (≈ 2.48 µg/mL); against C. neoformans, 1.61 µM (≈ 0.619 µg/mL).
The like results for `c1cc2[nH]c(-c3ccc(-c4nc5cc(C6=NCCN6)ccc5[nH]4)o3)nc2cc1C1=NCCN1` [Compound 10, 2,5-bis[5-(2-imidazolinyl)-2-benzimidazolyl]furan] were, in that order, 5.21 µM (≈ 2.27 µg/mL) and 2.6 µM (≈ 1.13 µg/mL).
